Where two headings read alike, the source gives them in different places.
Tests used:
Assay type in all cases: binding
[1] = molecular target: T1, HeLa cell extract proteins (Homo sapiens, UniProt Q6R327)
T1 construct: endogenous in cells; host or cells: HeLa cell extract

[2] = molecular target: T2, HeLa cell extract proteins (Homo sapiens, UniProt P20671)
T2 construct: endogenous in cells; host or cells: HeLa cell extract

[3] = molecular target: T3, HeLa cell extract proteins (Homo sapiens, UniProt O15111); settings: HeLa; protein CHUK
T3 construct: endogenous in cells; host or cells: HeLa cell extract
T3 sequence (O15111 1-745): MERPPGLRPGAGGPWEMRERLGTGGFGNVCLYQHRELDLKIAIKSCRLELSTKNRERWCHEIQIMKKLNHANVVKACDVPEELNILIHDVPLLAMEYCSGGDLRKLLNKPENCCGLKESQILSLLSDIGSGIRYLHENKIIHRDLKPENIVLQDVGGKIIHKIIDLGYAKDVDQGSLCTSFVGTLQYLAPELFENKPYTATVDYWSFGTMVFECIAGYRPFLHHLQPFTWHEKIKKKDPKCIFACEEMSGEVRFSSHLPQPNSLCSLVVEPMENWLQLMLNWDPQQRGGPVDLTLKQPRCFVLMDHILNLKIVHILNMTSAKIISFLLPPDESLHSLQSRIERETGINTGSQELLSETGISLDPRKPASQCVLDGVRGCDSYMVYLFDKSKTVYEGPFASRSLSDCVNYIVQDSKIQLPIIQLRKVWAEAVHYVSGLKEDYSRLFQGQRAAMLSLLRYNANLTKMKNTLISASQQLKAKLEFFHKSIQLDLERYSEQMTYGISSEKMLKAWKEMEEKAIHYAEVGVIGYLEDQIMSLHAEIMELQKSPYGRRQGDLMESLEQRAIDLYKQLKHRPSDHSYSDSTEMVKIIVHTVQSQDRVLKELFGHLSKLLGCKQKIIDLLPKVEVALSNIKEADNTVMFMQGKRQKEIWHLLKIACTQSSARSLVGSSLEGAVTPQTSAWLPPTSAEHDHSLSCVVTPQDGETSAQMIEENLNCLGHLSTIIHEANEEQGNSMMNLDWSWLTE

[4] = molecular target: T4, HeLa cell extract proteins (Homo sapiens, UniProt O75489); settings: HeLa; protein NDUFS3
T4 construct: endogenous in cells; host or cells: HeLa cell extract

[5] = molecular target: T5, HeLa cell extract proteins (Homo sapiens, UniProt P25786); settings: protein PSMA1; HeLa
T5 construct: endogenous in cells; host or cells: HeLa cell extract

[6] = molecular target: T6, HeLa cell extract proteins (Homo sapiens, UniProt P48729); settings: protein CSNK1A1; HeLa
T6 construct: endogenous in cells; host or cells: HeLa cell extract

[7] = molecular target: T7, HeLa cell extract proteins (Homo sapiens, UniProt O43776); settings: protein NARS; HeLa
T7 construct: endogenous in cells; host or cells: HeLa cell extract
T7 sequence (O43776 1-548): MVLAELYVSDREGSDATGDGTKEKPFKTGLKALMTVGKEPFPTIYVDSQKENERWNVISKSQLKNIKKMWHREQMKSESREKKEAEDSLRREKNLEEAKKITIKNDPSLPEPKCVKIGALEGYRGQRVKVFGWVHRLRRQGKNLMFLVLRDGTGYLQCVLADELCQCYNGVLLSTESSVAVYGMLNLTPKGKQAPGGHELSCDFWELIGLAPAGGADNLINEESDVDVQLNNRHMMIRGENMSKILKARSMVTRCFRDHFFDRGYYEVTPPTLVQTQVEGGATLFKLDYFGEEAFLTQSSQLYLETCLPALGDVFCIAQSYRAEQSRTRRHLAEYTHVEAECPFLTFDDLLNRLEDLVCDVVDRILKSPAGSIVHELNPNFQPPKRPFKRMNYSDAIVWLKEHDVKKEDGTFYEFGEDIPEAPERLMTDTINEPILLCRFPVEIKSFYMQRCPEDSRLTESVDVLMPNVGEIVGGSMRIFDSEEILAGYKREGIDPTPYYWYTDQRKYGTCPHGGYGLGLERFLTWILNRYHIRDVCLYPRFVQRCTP

[8] = molecular target: T8, HeLa cell extract proteins (Homo sapiens, UniProt P12236); settings: captured protein SLC25A6; HeLa
T8 construct: endogenous in cells; host or cells: HeLa cell extract
T8 sequence (P12236 1-298): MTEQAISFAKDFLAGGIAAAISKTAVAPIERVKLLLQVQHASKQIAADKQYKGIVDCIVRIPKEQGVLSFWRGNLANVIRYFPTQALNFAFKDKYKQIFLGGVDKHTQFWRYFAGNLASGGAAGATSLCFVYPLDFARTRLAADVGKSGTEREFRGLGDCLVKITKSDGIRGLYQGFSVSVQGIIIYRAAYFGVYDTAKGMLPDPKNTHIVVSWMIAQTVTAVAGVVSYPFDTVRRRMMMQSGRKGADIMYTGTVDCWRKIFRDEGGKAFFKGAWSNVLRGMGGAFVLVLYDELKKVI

T6 sequence (P48729 whole entry): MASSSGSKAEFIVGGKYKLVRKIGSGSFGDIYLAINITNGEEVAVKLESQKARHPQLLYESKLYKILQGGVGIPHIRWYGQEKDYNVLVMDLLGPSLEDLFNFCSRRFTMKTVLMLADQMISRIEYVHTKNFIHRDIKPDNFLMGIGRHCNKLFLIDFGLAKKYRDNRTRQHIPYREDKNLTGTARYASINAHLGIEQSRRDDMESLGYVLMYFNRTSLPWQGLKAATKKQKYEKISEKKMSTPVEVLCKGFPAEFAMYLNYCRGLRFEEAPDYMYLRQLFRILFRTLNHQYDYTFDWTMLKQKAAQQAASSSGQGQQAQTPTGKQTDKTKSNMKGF
T4 sequence (O75489 37-264): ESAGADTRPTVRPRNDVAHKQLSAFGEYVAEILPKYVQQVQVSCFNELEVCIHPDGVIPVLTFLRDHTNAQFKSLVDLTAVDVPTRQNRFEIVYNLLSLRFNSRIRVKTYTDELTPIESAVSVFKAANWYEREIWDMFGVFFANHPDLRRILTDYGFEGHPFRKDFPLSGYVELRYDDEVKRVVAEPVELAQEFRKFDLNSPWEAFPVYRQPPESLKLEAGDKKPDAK
T1 sequence (Q6R327 whole entry): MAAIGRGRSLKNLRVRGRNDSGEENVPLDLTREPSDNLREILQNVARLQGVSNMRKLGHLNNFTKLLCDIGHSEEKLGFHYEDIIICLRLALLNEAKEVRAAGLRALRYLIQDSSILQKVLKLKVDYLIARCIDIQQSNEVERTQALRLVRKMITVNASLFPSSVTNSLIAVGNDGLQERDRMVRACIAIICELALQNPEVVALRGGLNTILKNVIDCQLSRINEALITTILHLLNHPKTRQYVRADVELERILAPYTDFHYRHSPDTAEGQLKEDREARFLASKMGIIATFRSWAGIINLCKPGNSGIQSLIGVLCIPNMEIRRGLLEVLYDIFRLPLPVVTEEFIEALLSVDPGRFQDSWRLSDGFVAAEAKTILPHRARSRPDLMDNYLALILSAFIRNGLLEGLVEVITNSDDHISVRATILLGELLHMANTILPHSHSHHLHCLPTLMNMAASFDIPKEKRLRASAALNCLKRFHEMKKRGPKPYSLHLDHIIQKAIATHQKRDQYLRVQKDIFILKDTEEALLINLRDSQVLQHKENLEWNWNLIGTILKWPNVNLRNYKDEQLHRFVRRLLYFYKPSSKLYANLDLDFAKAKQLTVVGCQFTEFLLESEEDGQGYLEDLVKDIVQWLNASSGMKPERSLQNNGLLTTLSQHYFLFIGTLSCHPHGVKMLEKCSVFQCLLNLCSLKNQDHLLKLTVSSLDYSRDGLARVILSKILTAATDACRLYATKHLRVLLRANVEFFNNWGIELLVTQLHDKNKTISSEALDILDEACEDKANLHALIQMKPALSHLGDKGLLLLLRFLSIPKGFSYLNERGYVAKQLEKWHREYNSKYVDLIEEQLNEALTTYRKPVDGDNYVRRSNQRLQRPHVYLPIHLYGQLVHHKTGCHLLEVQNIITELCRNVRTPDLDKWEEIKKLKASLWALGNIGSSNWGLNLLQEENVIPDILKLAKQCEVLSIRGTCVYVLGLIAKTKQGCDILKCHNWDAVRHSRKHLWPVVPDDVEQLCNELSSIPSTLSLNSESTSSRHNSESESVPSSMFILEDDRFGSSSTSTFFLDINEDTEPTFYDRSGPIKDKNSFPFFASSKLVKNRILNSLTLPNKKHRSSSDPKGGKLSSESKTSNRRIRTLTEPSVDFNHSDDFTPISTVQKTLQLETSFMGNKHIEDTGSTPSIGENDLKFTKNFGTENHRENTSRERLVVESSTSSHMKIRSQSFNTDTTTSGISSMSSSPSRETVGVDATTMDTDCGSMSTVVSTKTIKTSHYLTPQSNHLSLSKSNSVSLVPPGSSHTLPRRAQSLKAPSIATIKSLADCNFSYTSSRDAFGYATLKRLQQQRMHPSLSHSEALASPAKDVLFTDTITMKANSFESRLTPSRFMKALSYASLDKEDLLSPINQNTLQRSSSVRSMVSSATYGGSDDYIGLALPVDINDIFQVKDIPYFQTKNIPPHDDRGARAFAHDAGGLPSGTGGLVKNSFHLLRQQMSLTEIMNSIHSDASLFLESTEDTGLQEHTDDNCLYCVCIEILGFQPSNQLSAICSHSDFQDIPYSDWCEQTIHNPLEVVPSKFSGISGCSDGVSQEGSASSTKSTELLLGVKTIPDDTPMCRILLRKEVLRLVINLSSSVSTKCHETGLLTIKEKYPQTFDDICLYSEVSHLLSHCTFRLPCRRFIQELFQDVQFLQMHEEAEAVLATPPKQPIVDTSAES
T5 sequence (P25786 whole entry): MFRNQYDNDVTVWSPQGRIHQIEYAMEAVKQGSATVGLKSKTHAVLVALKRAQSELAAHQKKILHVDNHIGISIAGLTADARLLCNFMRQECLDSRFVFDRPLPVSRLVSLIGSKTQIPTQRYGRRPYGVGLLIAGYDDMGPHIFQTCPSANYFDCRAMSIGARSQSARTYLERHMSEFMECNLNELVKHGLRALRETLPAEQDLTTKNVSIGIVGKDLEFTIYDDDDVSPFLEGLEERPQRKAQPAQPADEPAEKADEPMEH

Nc1nc2c(c(=O)[nH]1)N(C=O)C(CNc1ccc(C(=O)N[C@@H](CCC(=O)O)C(=O)O)cc1)CN2 (some centres unmarked) [LEU, leucovorin] was tested, and the “fold changes relative to vehicle control” value ([1]; HeLa, protein RICTOR) was 0.92 and the “fold changes relative to vehicle control” value ([2]; HeLa, protein HIST1H2AD) was 0.96.
Nc1nc2[nH]cc(CCc3ccc(C(=O)N[C@@H](CCC(=O)O)C(=O)O)cc3)c2c(=O)[nH]1 [PTX, pemetrexed] was tested, and the “fold changes relative to vehicle control” value [1] was 0.97 and the “fold changes relative to vehicle control” value [2] was 1.03.
CCCCCCOc1ccc(Cc2cnc(N)nc2N)cc1 [compound 1] was tested, and the “fold changes relative to vehicle control” value [3] was 0.98, the “fold changes relative to vehicle control” value [4] was 1.05 and the “fold changes relative to vehicle control” value [5] was 1.2. The “fold changes relative to vehicle control” value [6] was 0.93, the “fold changes relative to vehicle control” value [7] was 1.11 and the “fold changes relative to vehicle control” value [8] was 0.98.
For CCCCCCOc1cccc(Cc2cnc(N)nc2N)c1 [compound 2], the “fold changes relative to vehicle control” value [3] was 1.04, the “fold changes relative to vehicle control” value [4] was 1.19 and the “fold changes relative to vehicle control” value [5] was 1.36. The “fold changes relative to vehicle control” value [6] was 1.17, the “fold changes relative to vehicle control” value [7] was 2.06 and the “fold changes relative to vehicle control” value [8] was 1.04.
With Nc1nc2cccc(-c3ccccc3)c2n1Cc1ccc(Cl)c(Cl)c1 [compound 3] the “fold changes relative to vehicle control” value [3] was 0.9, the “fold changes relative to vehicle control” value [4] was 0.86 and the “fold changes relative to vehicle control” value [5] was 0.97. For the same compound, the “fold changes relative to vehicle control” value [6] was 1.06, the “fold changes relative to vehicle control” value [7] was 1.28 and the “fold changes relative to vehicle control” value [8] was 1.01.
With NCCOCCOCC(=O)Nc1nc2ncc(CNc3ccc(C(=O)NC(CCC(=O)O)C(=O)O)cc3)nc2c(=O)[nH]1 (centres unmarked) [compound 6] the “fold changes relative to vehicle control” value ([1]; HeLa, protein RICTOR) was 1.11 and the “fold changes relative to vehicle control” value ([2]; HeLa, protein HIST1H2AD) was 1.18.
With NCCCNc1ccc(C(=O)NC(CCC(=O)O)C(=O)O)cc1 (centres unmarked) [compound 7] the “fold changes relative to vehicle control” value ([1]; HeLa, protein RICTOR) was 1.11 and the “fold changes relative to vehicle control” value ([2]; HeLa, protein HIST1H2AD) was 0.97.

Reference: article PMC6199744, “Development of Chemical Proteomics for the Folateome and Analysis of the Kinetoplastid Folateome” (ACS Infectious Diseases, 2018)
